Experimental data reported in the NIST ThermoML archive (doi:10.1021/acs.jced.8b00492).
± gives the expanded uncertainty stated by the source.

Assay: mn = molality of the nth substance listed, in mol/kg
Conditions: for surface tension liquid-gas: Ring tensiometer; for viscosity / speed of sound / mass density: 100 kPa, Liquid; for viscosity: Capillary tube (Ostwald / Ubbelohde) method; for speed of sound: Frequency=3 MHz, Single path-length method; for mass density: Vibrating tube method

C1N2CN3CN1CN(C2)C3 [1,3,5,7-tetraazaadamantane] + O
Conditions | mass density [kg/m3] | speed of sound [m/s] | surface tension liquid-gas [mN/m] | viscosity [mPa·s]
293.15 K, m1 = 0.207 | 1004.3 ± 2 | 1493.6 ± 0.7 | 69.2 ± 0.9 | 1.075 ± 0.05
293.15 K, m1 = 0.425 | 1010.5 ± 2 | 1504.9 ± 0.7 | 67.4 ± 0.9 | 1.168 ± 0.05
293.15 K, m1 = 0.654 | 1016.6 ± 2 | 1516.5 ± 0.7 | 66.2 ± 0.9 | 1.287 ± 0.051
293.15 K, m1 = 0.897 | 1022.9 ± 2 | 1528.8 ± 0.7 | 65.4 ± 0.9 | 1.419 ± 0.051
293.15 K, m1 = 1.164 | 1029.5 ± 2 | 1541.8 ± 0.7 | 64.8 ± 0.9 | 1.579 ± 0.051
293.15 K, m1 = 1.449 | 1036.1 ± 2 | 1555.9 ± 0.7 | 64.4 ± 0.9 | 1.711 ± 0.051
293.15 K, m1 = 1.748 | 1042.9 ± 2 | 1569.3 ± 0.7 | 64 ± 0.9 | 1.911 ± 0.051
293.15 K, m1 = 2.068 | 1049.6 ± 2 | 1583.3 ± 0.7 | 63.7 ± 0.9 | 2.142 ± 0.052
293.15 K, m1 = 2.412 | 1056.3 ± 2 | 1597.1 ± 0.7 | 63.5 ± 0.9 | 2.477 ± 0.052
293.15 K, m1 = 2.779 | 1063.3 ± 2 | 1611.8 ± 0.8 | 63.3 ± 0.9 | 2.777 ± 0.052
293.15 K, m1 = 3.181 | 1070.4 ± 2 | 1626.9 ± 0.8 | 63.2 ± 0.9 | 3.217 ± 0.053
293.15 K, m1 = 3.617 | 1077.6 ± 2 | 1642.5 ± 0.8 | 63.1 ± 0.9 | 3.698 ± 0.054
293.15 K, m1 = 4.088 | 1084.9 ± 2 | 1658.4 ± 0.8 | 63 ± 0.9 | 4.214 ± 0.056
293.15 K, m1 = 4.609 | 1092.3 ± 2 | 1674.7 ± 0.8 | 62.9 ± 0.9 | 4.991 ± 0.058
293.15 K, m1 = 5.155 | 1099.8 ± 2 | 1691.4 ± 0.8 | 62.9 ± 0.9 | 5.869 ± 0.06
303.15 K, m1 = 0.207 | 1001.6 ± 2 | 1519 ± 0.7 | 67.5 ± 0.9 | 0.88 ± 0.05
303.15 K, m1 = 0.425 | 1007.7 ± 2 | 1529.4 ± 0.7 | 66.1 ± 0.9 | 0.942 ± 0.05
303.15 K, m1 = 0.654 | 1013.8 ± 2 | 1539.3 ± 0.7 | 65 ± 0.9 | 1.025 ± 0.05
303.15 K, m1 = 0.897 | 1019.9 ± 2 | 1550 ± 0.7 | 64.2 ± 0.9 | 1.085 ± 0.05
303.15 K, m1 = 1.164 | 1026.4 ± 2 | 1561.1 ± 0.7 | 63.5 ± 0.9 | 1.193 ± 0.05
303.15 K, m1 = 1.449 | 1032.9 ± 2 | 1573.6 ± 0.7 | 62.9 ± 0.8 | 1.309 ± 0.051
303.15 K, m1 = 1.748 | 1039.4 ± 2 | 1585 ± 0.7 | 62.5 ± 0.8 | 1.472 ± 0.051
303.15 K, m1 = 2.068 | 1046 ± 2 | 1597.4 ± 0.7 | 62.2 ± 0.8 | 1.631 ± 0.051
303.15 K, m1 = 2.412 | 1052.9 ± 2 | 1609.3 ± 0.7 | 61.9 ± 0.8 | 1.875 ± 0.051
303.15 K, m1 = 2.779 | 1059.7 ± 2 | 1622.1 ± 0.7 | 61.7 ± 0.8 | 2.094 ± 0.051
303.15 K, m1 = 3.181 | 1066.6 ± 2 | 1635.2 ± 0.8 | 61.5 ± 0.8 | 2.402 ± 0.052
303.15 K, m1 = 3.617 | 1073.6 ± 2 | 1648.7 ± 0.8 | 61.4 ± 0.8 | 2.743 ± 0.052
303.15 K, m1 = 4.088 | 1080.8 ± 2 | 1662.4 ± 0.8 | 61.3 ± 0.8 | 3.092 ± 0.053
303.15 K, m1 = 4.609 | 1088 ± 2 | 1676.5 ± 0.8 | 61.2 ± 0.8 | 3.635 ± 0.054
303.15 K, m1 = 5.155 | 1095 ± 2 | 1690.9 ± 0.8 | 61.2 ± 0.8 | 4.21 ± 0.056
313.15 K, m1 = 0.207 | 998 ± 2 | 1538 ± 0.7 | 66.3 ± 0.9 | 0.718 ± 0.05
313.15 K, m1 = 0.425 | 1004.1 ± 2 | 1546.6 ± 0.7 | 64.7 ± 0.9 | 0.761 ± 0.05
313.15 K, m1 = 0.654 | 1010.1 ± 2 | 1555.4 ± 0.7 | 63.5 ± 0.9 | 0.806 ± 0.05
313.15 K, m1 = 0.897 | 1016.1 ± 2 | 1565 ± 0.7 | 62.8 ± 0.8 | 0.87 ± 0.05
313.15 K, m1 = 1.164 | 1022.5 ± 2 | 1574.7 ± 0.7 | 62.1 ± 0.8 | 0.936 ± 0.05
313.15 K, m1 = 1.449 | 1028.9 ± 2 | 1585.8 ± 0.7 | 61.5 ± 0.8 | 1.017 ± 0.05
313.15 K, m1 = 1.748 | 1035.4 ± 2 | 1595.6 ± 0.7 | 61.1 ± 0.8 | 1.158 ± 0.05
313.15 K, m1 = 2.068 | 1041.8 ± 2 | 1606.6 ± 0.7 | 60.7 ± 0.8 | 1.26 ± 0.051
313.15 K, m1 = 2.412 | 1048.3 ± 2 | 1616 ± 0.7 | 60.5 ± 0.8 | 1.441 ± 0.051
313.15 K, m1 = 2.779 | 1055 ± 2 | 1627.1 ± 0.7 | 60.3 ± 0.8 | 1.597 ± 0.051
313.15 K, m1 = 3.181 | 1061.8 ± 2 | 1638.5 ± 0.8 | 60.2 ± 0.8 | 1.82 ± 0.051
313.15 K, m1 = 3.617 | 1068.7 ± 2 | 1650.1 ± 0.8 | 60.1 ± 0.8 | 2.063 ± 0.051
313.15 K, m1 = 4.088 | 1075.6 ± 2 | 1661.9 ± 0.8 | 60 ± 0.8 | 2.296 ± 0.052
313.15 K, m1 = 4.609 | 1082.7 ± 2 | 1674 ± 0.8 | 59.9 ± 0.8 | 2.687 ± 0.052
313.15 K, m1 = 5.155 | 1089.8 ± 2 | 1687.2 ± 0.8 | 59.9 ± 0.8 | 3.084 ± 0.053
323.15 K, m1 = 0.207 | 993.9 ± 2 | 1549.2 ± 0.7 | 65.1 ± 0.9 | 0.596 ± 0.05
323.15 K, m1 = 0.425 | 999.7 ± 2 | 1557.4 ± 0.7 | 63.4 ± 0.8 | 0.635 ± 0.05
323.15 K, m1 = 0.654 | 1005.6 ± 2 | 1566.1 ± 0.7 | 62.1 ± 0.8 | 0.671 ± 0.05
323.15 K, m1 = 0.897 | 1011 ± 2 | 1574.4 ± 0.7 | 61.2 ± 0.8 | 0.716 ± 0.05
323.15 K, m1 = 1.164 | 1018 ± 2 | 1583 ± 0.7 | 60.5 ± 0.8 | 0.755 ± 0.05
323.15 K, m1 = 1.449 | 1024.3 ± 2 | 1593.1 ± 0.7 | 60.1 ± 0.8 | 0.819 ± 0.05
323.15 K, m1 = 1.748 | 1030.7 ± 2 | 1601.3 ± 0.7 | 59.7 ± 0.8 | 0.908 ± 0.05
323.15 K, m1 = 2.068 | 1037.1 ± 2 | 1611.1 ± 0.7 | 59.5 ± 0.8 | 0.985 ± 0.05
323.15 K, m1 = 2.412 | 1043.5 ± 2 | 1620 ± 0.7 | 59.2 ± 0.8 | 1.131 ± 0.05
323.15 K, m1 = 2.779 | 1050.1 ± 2 | 1629.6 ± 0.7 | 59 ± 0.8 | 1.233 ± 0.051
323.15 K, m1 = 3.181 | 1056.8 ± 2 | 1639.4 ± 0.8 | 58.9 ± 0.8 | 1.387 ± 0.051
323.15 K, m1 = 3.617 | 1063.5 ± 2 | 1649.3 ± 0.8 | 58.8 ± 0.8 | 1.569 ± 0.051
323.15 K, m1 = 4.088 | 1070.4 ± 2 | 1659.4 ± 0.8 | 58.7 ± 0.8 | 1.77 ± 0.051
323.15 K, m1 = 4.609 | 1077.3 ± 2 | 1669.7 ± 0.8 | 58.6 ± 0.8 | 2.027 ± 0.051
323.15 K, m1 = 5.155 | 1084.2 ± 2 | 1680.2 ± 0.8 | 58.6 ± 0.8 | 2.327 ± 0.052
